{
  "source": "BindingDB's records for patent US10266550",
  "about": "(The Florida International University Board of Trustees, 2019)",
  "data": [
    {"biological_target": "DNA topoisomerase 2-alpha (Homo sapiens, UniProt P11388)", "sequence (P11388 whole entry)": "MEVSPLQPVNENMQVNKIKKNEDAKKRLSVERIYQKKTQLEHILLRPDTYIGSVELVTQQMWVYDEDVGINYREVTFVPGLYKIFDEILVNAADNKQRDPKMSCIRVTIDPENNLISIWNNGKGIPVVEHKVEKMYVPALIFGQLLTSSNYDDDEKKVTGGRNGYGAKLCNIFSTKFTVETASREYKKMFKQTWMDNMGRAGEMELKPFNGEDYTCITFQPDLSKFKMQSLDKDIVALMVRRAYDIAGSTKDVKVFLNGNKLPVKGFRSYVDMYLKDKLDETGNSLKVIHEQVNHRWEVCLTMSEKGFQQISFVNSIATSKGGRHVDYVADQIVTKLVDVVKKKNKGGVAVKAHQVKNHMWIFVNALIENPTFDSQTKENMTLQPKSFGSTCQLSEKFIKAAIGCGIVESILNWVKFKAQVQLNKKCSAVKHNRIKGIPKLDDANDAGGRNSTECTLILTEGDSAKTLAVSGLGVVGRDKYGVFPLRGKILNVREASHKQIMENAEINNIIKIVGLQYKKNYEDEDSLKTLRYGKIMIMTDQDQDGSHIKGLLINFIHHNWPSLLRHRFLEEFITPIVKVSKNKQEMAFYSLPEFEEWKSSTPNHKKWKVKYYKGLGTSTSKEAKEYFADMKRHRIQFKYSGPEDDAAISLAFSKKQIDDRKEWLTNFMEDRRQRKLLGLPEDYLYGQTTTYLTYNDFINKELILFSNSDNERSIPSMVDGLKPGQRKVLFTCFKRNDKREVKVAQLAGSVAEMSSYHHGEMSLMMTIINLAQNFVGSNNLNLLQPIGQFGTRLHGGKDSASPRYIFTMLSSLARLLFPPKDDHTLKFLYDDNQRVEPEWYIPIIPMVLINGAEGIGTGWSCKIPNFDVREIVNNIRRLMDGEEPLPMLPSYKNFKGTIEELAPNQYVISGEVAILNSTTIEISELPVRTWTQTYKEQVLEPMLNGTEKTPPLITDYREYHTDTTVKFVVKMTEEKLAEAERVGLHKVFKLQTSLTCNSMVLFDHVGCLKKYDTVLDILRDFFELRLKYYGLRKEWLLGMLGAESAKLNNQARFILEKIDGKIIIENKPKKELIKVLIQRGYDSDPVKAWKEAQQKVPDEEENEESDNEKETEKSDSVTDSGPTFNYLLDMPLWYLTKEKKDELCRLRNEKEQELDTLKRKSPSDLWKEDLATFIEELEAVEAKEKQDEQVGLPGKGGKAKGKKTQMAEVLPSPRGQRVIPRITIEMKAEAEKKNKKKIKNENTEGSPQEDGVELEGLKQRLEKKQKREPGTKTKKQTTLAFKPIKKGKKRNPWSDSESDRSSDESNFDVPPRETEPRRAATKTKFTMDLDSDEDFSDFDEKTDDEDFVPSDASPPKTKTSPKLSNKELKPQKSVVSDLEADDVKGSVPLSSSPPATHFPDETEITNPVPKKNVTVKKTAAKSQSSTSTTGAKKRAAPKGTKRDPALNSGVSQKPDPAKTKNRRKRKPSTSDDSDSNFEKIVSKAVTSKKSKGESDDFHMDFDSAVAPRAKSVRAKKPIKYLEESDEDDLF", "assay": "Human Topoisomerase IIalpha Decatenation Inhibition Assay", "procedure": "The samples were incubated for 15 minutes at 37° C. before the addition of 4 μL of a stop buffer containing 5% sarkosyl, 0.25% bromophenol blue, and 25% glycerol. The reactions were then analyzed by electrophoresis in 1% agarose gels containing […] ethidium bromide before being photographed under UV light.", "units": {"IC50": "nM"}, "values": [
      {"compound": "N[C@H]1CCN(c2c(F)cc3c(=O)c(C(=O)O)cn4c3c2Oc2cc([N+](=O)[O-])ccc2-4)C1", "note": "[US10266550, Compound 16]", "IC50": 2920},
      {"compound": "CN1CCN(c2c(F)cc3c(=O)c(C(=O)O)cn4c3c2Oc2cc(N)ccc2-4)CC1", "note": "[US10266550, Compound 11a]", "IC50": 5850},
      {"compound": "Nc1ccc2c(c1)Oc1c(N3CCNCC3)c(F)cc3c(=O)c(C(=O)O)cn-2c13", "note": "[US10266550, Compound 11b]", "IC50": 2920}
    ]}
  ]
}
